In US7772263B2, “Compounds for the treatment of inflammatory disorders” (Schering Corporation, priority 2006, dated 2010) one finds Ki data, which are given here for 63 compounds.

Bounds are passed on as bounds.

T1 sequence (P78536 215-477 S266A/N452Q limits assumed): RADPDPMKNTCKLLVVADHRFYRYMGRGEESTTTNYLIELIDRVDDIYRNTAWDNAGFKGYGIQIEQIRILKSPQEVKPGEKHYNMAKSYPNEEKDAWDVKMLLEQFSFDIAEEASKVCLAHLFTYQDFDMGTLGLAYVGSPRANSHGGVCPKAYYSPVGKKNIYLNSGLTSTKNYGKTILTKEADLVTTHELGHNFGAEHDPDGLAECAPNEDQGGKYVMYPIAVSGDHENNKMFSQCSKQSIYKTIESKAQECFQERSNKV

The first assay addresses T1, purified catalytic domain of recombinant human TACE (rhTACEc) (Homo sapiens, UniProt P78536, N452Q/S266A).
T1 construct: rhTACEc, Residue 215 to 477 with two mutation (S266A and N4520) and a 6×His tail; 6xHis (C); made in house; host or cells: baculovirus/Hi5 insect cells
The assay can be described thus: TACE kinetic assay, cleavage of internally quenched fluorescent peptide substrate SPDL-3. The assay is classed as biochemical. Particulars: Ki (nM), TACE inhibitory activity, rhTACEc 70 pM, 30 μM SPDL-3, 90 min pre-incubation at 25° C.
With `COc1ccc2c(c1)C(=O)N(C[C@@]1(C#Cc3ccc4[nH]ccc4c3)NC(=O)NC1=O)C2` [Compound 1129], the inhibition constant (Ki) (in general, the equilibrium dissociation constant of an inhibitor or competing ligand from its target) stood at 0.17 nM.

The same assay, now with this note: TACE; class letters A-D; read-out: Ki Rating.
As for `CON=Cc1ccc(C#C[C@]2(CN3Cc4ccc(OC)cc4C3=O)NC(=O)NC2=O)s1` [Compound 1084], the inhibition constant Ki is under 5 nM.
Consider `CO/N=C/c1cccc(C#C[C@]2(CN3Cc4ccc(OC)cc4C3=O)NC(=O)NC2=O)c1` [Compound 1085], for which the Ki was under 5 nM.
Turning to `CON=Cc1ccc(C#C[C@]2(CN3Cc4ccc(OC)cc4C3=O)NC(=O)NC2=O)cc1` [Compound 1086], the inhibitory constant (Ki) was under 5 nM.
As to `COc1ccc2c(c1)CCN(CC1(C#Cc3cccnc3)NC(=O)NC1=O)C2=O` (stereo not drawn) [Compound 1087], the inhibitory constant (Ki) was under 5 nM.
`COc1ccc2c(c1)CCN(CC1(C#Cc3ccc(Cl)s3)NC(=O)NC1=O)C2=O` (stereo not drawn) [Compound 1088]: the Ki lay in the range of 5 to 25 nM.
In the case of `COc1ccc2c(c1)C(=O)N(C[C@@]1(C#Cc3cccc(C=NO)c3)NC(=O)NC1=O)C2` [Compound 1089], the inhibition constant (Ki) was under 5 nM.
On to `COc1ccc2c(c1)C(=O)N(C[C@@]1(C#Cc3ccc(C(C)=NO)s3)NC(=O)NC1=O)C2` [Compound 1090], for which the inhibition constant Ki is under 5 nM.
Same read-out and setting: in the case of `COc1ccc2c(c1)C(=O)N(C[C@@]1(C#Cc3ccc(C=NO)cc3)NC(=O)NC1=O)C2` [Compound 1091] it was under 5 nM; in that of `COc1ccc2c(c1)CCN(C[C@@]1(C#Cc3cccnc3)NC(=O)NC1=O)C2=O` [Compound 1092], under 5 nM.
For `COc1ccc2c(c1)CCN(C[C@@]1(C#Cc3ccc(Cl)s3)NC(=O)NC1=O)C2=O` [Compound 1093], the Ki was under 5 nM.
The same measure, in the same setting: next, `COc1ccc2c(c1)C(=O)N(C[C@]1(C#Cc3cnc4[nH]c(C)nc4c3C)NC(=O)NC1=O)C2` [Compound 1094]: over 100 nM; `COc1ccc2c(c1)C(=O)N(C[C@@]1(C#Cc3ccc4c(c3)n(C)c(=O)n4C)NC(=O)NC1=O)C2` [Compound 1095]: under 5 nM.
For the compound `COc1ccc2c(c1)CCN(C[C@]1(C#Cc3cccnc3)NC(=O)NC1=O)C2=O` [Compound 1096], the inhibition constant Ki was over 100 nM.
Still for that read-out and setting: in the case of `COc1ccc2c(c1)CCN(C[C@]1(C#Cc3ccc(Cl)s3)NC(=O)NC1=O)C2=O` [Compound 1097] it was over 100 nM; in that of `COc1ccc2c(c1)C(=O)N(C[C@@]1(C#Cc3cnc4[nH]c(C)nc4c3C)NC(=O)NC1=O)C2` [Compound 1098], under 5 nM; in that of `COc1ccc2c(c1)C(=O)N(C[C@@]1(C#Cc3ccc4[nH]ccc4c3)NC(=O)NC1=O)C2` [Compound 1129], under 5 nM.
As for `COc1ccc2c(c1)C(=O)N(C[C@]1(C#Cc3ccc4[nH]ccc4c3)NC(=O)NC1=O)C2` [Compound 1130], the Ki lay in the range of 5 to 25 nM.
In the case of `COc1ccc2c(c1)C(=O)N(C[C@@]1(C#Cc3ccc4cc[nH]c4c3)NC(=O)NC1=O)C2` [Compound 1131], the Ki is under 5 nM.
`COc1ccc2c(c1)C(=O)N(C[C@@]1(C#Cc3cccc4[nH]ccc34)NC(=O)NC1=O)C2` [Compound 1132]: the inhibition constant (Ki) is under 5 nM.
Turning to `COc1ccc2c(c1)C(=O)N(C[C@@]1(C#Cc3ccc(C(N)=O)cc3)NC(=O)NC1=O)C2` [Compound 1133], the inhibition constant Ki was under 5 nM.
As for `COc1ccc2c(c1)C(=O)N(C[C@@]1(C#Cc3cccc(C(N)=O)c3)NC(=O)NC1=O)C2` [Compound 1134], the Ki is under 5 nM.
Consider `CCOC(=O)c1ccc(C#C[C@]2(CN3Cc4ccc(OC)cc4C3=O)NC(=O)NC2=O)cc1` [Compound 1135], for which the Ki is under 5 nM.
For the compound `COc1ccc2c(c1)C(=O)N(C[C@@]1(C#Cc3ccc(-c4ncc[nH]4)cc3)NC(=O)NC1=O)C2` [Compound 1136], the inhibitory constant (Ki) is under 5 nM.
Still for that read-out and setting: in the case of `COc1ccc2c(c1)C(=O)N(C[C@@]1(C#Cc3ccccc3C(N)=O)NC(=O)NC1=O)C2` [Compound 1137] it was under 5 nM; in that of `COc1ccc2c(c1)C(=O)N(C[C@@]1(C#Cc3ccc(C(=O)O)cc3)NC(=O)NC1=O)C2` [Compound 1138], under 5 nM.
For the compound `COc1ccc2c(c1)C(=O)N(C[C@@]1(C#Cc3ccc4c(c3)OCO4)NC(=O)NC1=O)C2` [Compound 1139], the Ki was under 5 nM.
As for `COc1ccc2c(c1)C(=O)N(C[C@@]1(C#Cc3ccc(Cl)c(C(=O)O)c3)NC(=O)NC1=O)C2` [Compound 1140], the inhibition constant (Ki) is under 5 nM.
On the same count and under the same terms, next, `CNC(=O)c1ccc(C#C[C@]2(CN3Cc4ccc(OC)cc4C3=O)NC(=O)NC2=O)cc1` [Compound 1141]: under 5 nM.
For `COc1ccc2c(c1)C(=O)N(C[C@@]1(C#Cc3ccc(C(=O)NCCN(C)C)cc3)NC(=O)NC1=O)C2` [Compound 1142], the inhibition constant (Ki) is under 5 nM.
The same measure, in the same setting: next, `COc1ccc2c(c1)C(=O)N(C[C@@]1(C#Cc3ccc(Cl)c(C(=O)NCCN(C)C)c3)NC(=O)NC1=O)C2` [Compound 1143]: under 5 nM; `CNC(=O)c1cc(C#C[C@]2(CN3Cc4ccc(OC)cc4C3=O)NC(=O)NC2=O)ccc1Cl` [Compound 1144]: under 5 nM.
In the case of `COc1ccc2c(c1)C(=O)N(C[C@@]1(C#Cc3ccc(C(=O)N4CCOCC4)cc3)NC(=O)NC1=O)C2` [Compound 1145], the inhibition constant Ki is under 5 nM.
The same measure, in the same setting: next, `COc1ccc2c(c1)C(=O)N(C[C@@]1(C#Cc3ccccc3Cl)NC(=O)NC1=O)C2` [Compound 1146]: under 5 nM; `COc1cccc(C#C[C@]2(CN3Cc4ccc(OC)cc4C3=O)NC(=O)NC2=O)c1` [Compound 1147]: under 5 nM.
For `COc1ccc2c(c1)C(=O)N(C[C@@]1(C#Cc3cccc(OC(F)F)c3)NC(=O)NC1=O)C2` [Compound 1148], the inhibitory constant (Ki) was under 5 nM.
Regarding `COc1ccc2c(c1)C(=O)N(C[C@@]1(C#Cc3ccc(F)c(OC)c3)NC(=O)NC1=O)C2` [Compound 1149], the inhibitory constant (Ki) was under 5 nM.
As for `COc1ccc2c(c1)C(=O)N(C[C@@]1(C#Cc3ccc(F)c(O)c3)NC(=O)NC1=O)C2` [Compound 1150], the inhibitory constant (Ki) is under 5 nM.
Turning to `COc1ccc2c(c1)C(=O)N(C[C@@]1(C#Cc3ccc(F)c(C(N)=O)c3)NC(=O)NC1=O)C2` [Compound 1151], the inhibition constant Ki is under 5 nM.
The same measure, in the same setting: next, `COc1ccc2c(c1)C(=O)N(C[C@@]1(C#Cc3ccc(N)nc3)NC(=O)NC1=O)C2` [Compound 1152]: under 5 nM; `COc1ccc2c(c1)C(=O)N(C[C@@]1(C#Cc3ccc(N4CCOCC4)nc3)NC(=O)NC1=O)C2` [Compound 1153]: under 5 nM; `COc1ccc2c(c1)C(=O)N(C[C@@]1(C#Cc3ccccc3C#N)NC(=O)NC1=O)C2` [Compound 1154]: under 5 nM.
The same measure, in the same setting: next, `COc1ccc2c(c1)C(=O)N(C[C@@]1(C#Cc3ccc(C)nc3)NC(=O)NC1=O)C2` [Compound 1155]: under 5 nM.
Still for that read-out and setting: next, `COc1ccc2c(c1)C(=O)N(C[C@@]1(C#Cc3ccc(C)cc3)NC(=O)NC1=O)C2` [Compound 1156]: under 5 nM; `COc1ccc2c(c1)C(=O)N(C[C@@]1(C#Cc3ccc(NC(C)=O)nc3)NC(=O)NC1=O)C2` [Compound 1157]: under 5 nM.
On to `O=C1NC(=O)[C@@](C#Cc2cccnc2)(CN2Cc3ccc(F)cc3C2=O)N1` [Compound 1200], for which the Ki is under 5 nM.
As to `COc1ccc2c(c1)CN(C[C@@]1(C#Cc3cc(F)cc(F)c3)NC(=O)NC1=O)C2=O` [Compound 1201], the inhibitory constant (Ki) was under 5 nM.
Turning to `COc1ccc2c(c1)CN(C[C@@]1(C#Cc3ccc(F)cc3F)NC(=O)NC1=O)C2=O` [Compound 1202], the inhibition constant (Ki) is under 5 nM.
As to `COc1ccc2c(c1)C(=O)N(C[C@@]1(C#Cc3ccc4occc4c3)NC(=O)NC1=O)C2` [Compound 1203], the inhibition constant (Ki) was under 5 nM.
The same measure, in the same setting: next, `COc1ccc2c(c1)C(=O)N(C[C@@]1(C#Cc3cn(C)c(=O)n(C)c3=O)NC(=O)NC1=O)C2` [Compound 1204]: under 5 nM; `COc1ccc2c(c1)C(=O)N(C[C@@]1(C#Cc3c[nH]c(=O)[nH]c3=O)NC(=O)NC1=O)C2` [Compound 1205]: under 5 nM.
With `COc1ccc2c(c1)C(=O)N(C[C@@]1(C#Cc3nc4ncnc(N)c4n3C)NC(=O)NC1=O)C2` [Compound 1208], the inhibitory constant (Ki) was under 5 nM.
Still for that read-out and setting: in the case of `O=C1NC(=O)[C@@](C#Cc2ccc3cnoc3c2)(CN2Cc3ccc(F)cc3C2=O)N1` [Compound 1211] it was under 5 nM.
For the compound `COc1ccc2c(c1)C(=O)N(C[C@@]1(C#Cc3ccc4nn(C(C)C)cc4c3)NC(=O)NC1=O)C2` [Compound 1212], the Ki was under 5 nM.
`COc1ccc2c(c1)C(=O)N(C[C@@]1(C#Cc3ccc4c(cnn4C(C)C)c3)NC(=O)NC1=O)C2` [Compound 1213]: the inhibitory constant (Ki) was under 5 nM.
On to `COc1ccc2c(c1)C(=O)N(C[C@@]1(C#Cc3ccc4cnoc4c3)NC(=O)NC1=O)C2` [Compound 1214], for which the inhibition constant (Ki) is under 5 nM.
As for `COc1ccc2c(c1)C(=O)N(C[C@@]1(C#Cc3cncc(-c4nnn(C)n4)c3)NC(=O)NC1=O)C2` [Compound 1215], the Ki was under 5 nM.
In the case of `COc1ccc2c(c1)C(=O)N(C[C@@]1(C#Cc3ccc(N)c(OC(F)(F)F)c3)NC(=O)NC1=O)C2` [Compound 1216], the Ki is under 5 nM.
With `COc1ccc2c(c1)C(=O)N(C[C@@]1(C#Cc3cc(F)c(F)cc3OC)NC(=O)NC1=O)C2` [Compound 1217], the Ki is under 5 nM.
Regarding `COc1ccc2c(c1)C(=O)N(C[C@@]1(C#Cc3ccc(F)cc3C#N)NC(=O)NC1=O)C2` [Compound 1218], the Ki was under 5 nM.
The same measure, in the same setting: in the case of `COc1ccc2c(c1)C(=O)N(C[C@@]1(C#Cc3cc(C)ccc3C#N)NC(=O)NC1=O)C2` [Compound 1219] it was under 5 nM; in that of `COc1ccc2c(c1)C(=O)N(C[C@@]1(C#Cc3ccc(-c4nnn(C)n4)s3)NC(=O)NC1=O)C2` [Compound 1220A], under 5 nM.
Same read-out and setting: in the case of `COc1ccc2c(c1)C(=O)N(C[C@@]1(C#Cc3ccc(C(C)=O)cc3)NC(=O)NC1=O)C2` [Compound 1220B] it was under 5 nM; in that of `COc1ccc2c(c1)C(=O)N(C[C@@]1(C#Cc3ccc(S(C)(=O)=O)cc3)NC(=O)NC1=O)C2` [Compound 1220C], over 100 nM.

The same assay, now with this note: rhTACEc 70 pM, 30 μM SPDL-3, 90 min pre-incubation at 25° C.; read-out: Ki (nM), TACE inhibitory activity.
With `COc1ccc2c(c1)C(=O)N(C[C@@]1(C#Cc3ccc(C(C)=NO)s3)NC(=O)NC1=O)C2` [Compound 1090], the Ki was found to be 0.3 nM.
For the compound `COc1ccc2c(c1)CCN(C[C@@]1(C#Cc3cccnc3)NC(=O)NC1=O)C2=O` [Compound 1092], the Ki was 0.37 nM.
On the same count and under the same terms, in the case of `COc1ccc2c(c1)C(=O)N(C[C@@]1(C#Cc3cccc4[nH]ccc34)NC(=O)NC1=O)C2` [Compound 1132] it was 1.8 nM; in that of `COc1ccc2c(c1)C(=O)N(C[C@@]1(C#Cc3ccc(N)nc3)NC(=O)NC1=O)C2` [Compound 1152], 0.03 nM; in that of `COc1ccc2c(c1)C(=O)N(C[C@@]1(C#Cc3ccc(C)nc3)NC(=O)NC1=O)C2` [Compound 1155], 0.41 nM.
